Laboratory results taken from ChEMBL document CHEMBL1146072, “Structure-activity relationship studies on N3-substituted willardiine derivatives acting as AMPA or kainate receptor antagonists” (J Med Chem, 2006).
Active and inactive are the calls of the source. The calls are words filed in the database; no cut-off is given here.

Columns and labels:
[1] = biological target: Glutamate receptor ionotropic, AMPA (Rattus norvegicus, UniProt P19490+P19491+P19492+P19493)
Description: Antagonist activity against AMPA receptor expressed in motoneurones by inhibition of fDR-VRP in the neonatal rat spinal cord

[2] = biological target: Glutamate receptor ionotropic, kainate 2 (Rattus norvegicus, UniProt P42260); test: Displacement of [3H]kainate from rat GLUK6 expressed in HEK293 cells; format: cell-based
[3] = Induction of calcium influx in HEK293 cells expressing human GLUK5/GLUK2 by FLIPR assay
[4] = Induction of calcium influx in HEK293 cells expressing human GLUK5/GLUK6 by FLIPR assay
[5] = Inhibition of glutamate-induced calcium influx in HEK293 cells expressing human GLUK5/GLUK6 by FLIPR assay; format: functional, cell-based
Glutamate receptor 1 [6] = biological target: T1, Glutamate receptor 1 (Homo sapiens, UniProt P42261); test: Inhibition of glutamate-induced calcium influx in HEK293 cells expressing human GLUA1; format: functional, cell-based
[7] = Inhibition of glutamate-induced calcium influx in HEK293 cells expressing human GLUK5/GLUK2 by FLIPR assay; format: functional, cell-based
[8] = biological target: Metabotropic glutamate receptor 1 (Rattus norvegicus) (UniProt P23385); test: Activity against DHPG-induced depolarization of neonatal rat motoneurons expressing mGlu1 receptor at 50 uM
[9] = biological target: Glutamate receptor 2 (Homo sapiens) (UniProt P42262); test: Inhibition of glutamate-induced calcium influx in HEK293 cells expressing human GLUA2 up to 100 uM; format: functional, cell-based
[10] = biological target: Glutamate NMDA receptor (Rattus norvegicus) (UniProt P35439+Q00959+Q00960+Q00961+Q62645+Q8VHN2+Q9R1M7); test: Activity against NMDA-induced depolarization of neonatal rat motoneurons expressing NMDA receptor at 50 uM; format: protein-complex assay
Glutamate receptor 1 [11] = biological target: T1, Glutamate receptor 1; test: Inhibition of glutamate-induced calcium influx in HEK293 cells expressing human GLUA1 up to 100 uM; format: functional, cell-based
[12] = biological target: Metabotropic glutamate receptor 5 (Rattus norvegicus) (UniProt P31424); test: Activity against DHPG-induced depolarization of neonatal rat motoneurons expressing mGlu5 receptor at 50 uM
[13] = biological target: Glutamate receptor ionotropic, kainate 1 (Homo sapiens, UniProt P39086); test: Inhibition of glutamate-induced calcium influx in HEK293 cells expressing human GLUK5 by FLIPR assay; format: functional, cell-based
Glutamate receptor 4 = Glutamate receptor 4 (Homo sapiens, UniProt P48058); test: Inhibition of glutamate-induced calcium influx in HEK293 cells expressing human GLUA4 up to 100 uM; format: functional, cell-based
Sequence of Glutamate receptor 4 (P48058 whole entry): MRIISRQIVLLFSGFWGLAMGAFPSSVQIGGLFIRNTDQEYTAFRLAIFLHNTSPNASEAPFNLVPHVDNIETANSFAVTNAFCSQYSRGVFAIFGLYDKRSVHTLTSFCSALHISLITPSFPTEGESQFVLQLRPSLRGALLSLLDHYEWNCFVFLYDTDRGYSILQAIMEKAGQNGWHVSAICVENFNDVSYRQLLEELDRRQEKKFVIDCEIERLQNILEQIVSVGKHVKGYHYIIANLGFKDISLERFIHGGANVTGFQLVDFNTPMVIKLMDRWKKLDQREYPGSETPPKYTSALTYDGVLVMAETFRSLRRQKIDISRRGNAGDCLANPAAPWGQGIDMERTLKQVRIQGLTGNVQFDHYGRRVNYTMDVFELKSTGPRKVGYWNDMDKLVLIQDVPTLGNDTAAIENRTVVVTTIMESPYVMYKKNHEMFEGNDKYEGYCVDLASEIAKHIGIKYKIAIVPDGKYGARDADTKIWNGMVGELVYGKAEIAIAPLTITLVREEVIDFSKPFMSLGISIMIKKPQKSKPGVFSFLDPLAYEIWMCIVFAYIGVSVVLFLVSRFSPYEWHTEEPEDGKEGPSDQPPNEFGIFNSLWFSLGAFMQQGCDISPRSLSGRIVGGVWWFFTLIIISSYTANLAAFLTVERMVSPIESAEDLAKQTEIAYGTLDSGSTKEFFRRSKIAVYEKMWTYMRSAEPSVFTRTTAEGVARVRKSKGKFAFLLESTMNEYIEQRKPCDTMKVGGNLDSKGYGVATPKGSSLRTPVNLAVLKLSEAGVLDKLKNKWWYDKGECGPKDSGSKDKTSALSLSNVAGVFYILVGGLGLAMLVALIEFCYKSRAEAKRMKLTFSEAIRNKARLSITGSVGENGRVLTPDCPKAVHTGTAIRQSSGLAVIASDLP

Sequence of Glutamate receptor ionotropic, kainate 2 (P42260 whole entry): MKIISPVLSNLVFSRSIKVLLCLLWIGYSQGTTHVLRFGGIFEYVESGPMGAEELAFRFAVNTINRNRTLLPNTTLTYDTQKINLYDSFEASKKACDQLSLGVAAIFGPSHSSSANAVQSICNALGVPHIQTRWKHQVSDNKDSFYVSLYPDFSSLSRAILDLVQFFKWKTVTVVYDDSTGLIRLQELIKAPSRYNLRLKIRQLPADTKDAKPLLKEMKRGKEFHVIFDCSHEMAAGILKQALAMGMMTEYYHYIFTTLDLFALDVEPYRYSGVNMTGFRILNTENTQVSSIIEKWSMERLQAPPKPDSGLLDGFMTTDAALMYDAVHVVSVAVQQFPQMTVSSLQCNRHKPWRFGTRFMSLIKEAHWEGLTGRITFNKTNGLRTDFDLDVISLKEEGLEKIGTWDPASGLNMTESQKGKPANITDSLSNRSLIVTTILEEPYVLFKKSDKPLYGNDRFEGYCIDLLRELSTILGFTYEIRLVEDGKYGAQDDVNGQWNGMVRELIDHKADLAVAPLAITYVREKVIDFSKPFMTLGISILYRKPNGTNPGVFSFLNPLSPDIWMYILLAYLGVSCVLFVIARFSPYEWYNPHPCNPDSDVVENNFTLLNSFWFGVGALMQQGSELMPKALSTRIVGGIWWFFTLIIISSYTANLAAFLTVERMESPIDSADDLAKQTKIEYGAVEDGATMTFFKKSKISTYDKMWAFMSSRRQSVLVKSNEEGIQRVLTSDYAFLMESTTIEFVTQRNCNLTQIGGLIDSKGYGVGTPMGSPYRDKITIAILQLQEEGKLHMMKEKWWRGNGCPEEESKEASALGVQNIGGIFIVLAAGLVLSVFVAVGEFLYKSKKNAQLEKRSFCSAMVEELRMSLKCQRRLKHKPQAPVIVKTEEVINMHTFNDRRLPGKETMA
T1 sequence (P42261 whole entry): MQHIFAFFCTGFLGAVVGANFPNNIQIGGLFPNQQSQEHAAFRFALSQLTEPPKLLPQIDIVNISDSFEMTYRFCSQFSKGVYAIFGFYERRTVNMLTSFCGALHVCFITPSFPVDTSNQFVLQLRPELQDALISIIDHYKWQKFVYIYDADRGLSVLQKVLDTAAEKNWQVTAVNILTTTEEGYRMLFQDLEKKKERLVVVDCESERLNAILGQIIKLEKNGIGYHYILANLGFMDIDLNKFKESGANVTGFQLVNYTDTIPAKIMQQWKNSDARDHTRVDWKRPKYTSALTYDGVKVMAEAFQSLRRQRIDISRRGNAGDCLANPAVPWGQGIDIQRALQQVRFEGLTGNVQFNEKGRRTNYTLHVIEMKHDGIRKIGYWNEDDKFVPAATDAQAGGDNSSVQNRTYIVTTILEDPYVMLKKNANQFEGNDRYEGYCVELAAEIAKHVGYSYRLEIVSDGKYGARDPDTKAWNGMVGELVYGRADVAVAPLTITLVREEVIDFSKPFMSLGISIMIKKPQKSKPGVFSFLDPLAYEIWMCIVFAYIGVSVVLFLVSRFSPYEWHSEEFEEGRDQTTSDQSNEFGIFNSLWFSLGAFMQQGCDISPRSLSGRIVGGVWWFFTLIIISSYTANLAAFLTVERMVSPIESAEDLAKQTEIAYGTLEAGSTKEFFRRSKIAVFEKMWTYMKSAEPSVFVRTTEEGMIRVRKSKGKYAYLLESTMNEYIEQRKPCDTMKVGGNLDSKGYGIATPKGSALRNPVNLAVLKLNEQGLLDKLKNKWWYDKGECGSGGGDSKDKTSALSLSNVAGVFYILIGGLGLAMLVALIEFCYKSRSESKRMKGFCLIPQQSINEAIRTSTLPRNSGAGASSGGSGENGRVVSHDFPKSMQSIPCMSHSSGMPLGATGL
Sequence of Glutamate receptor 2 (Homo sapiens) (P42262 whole entry): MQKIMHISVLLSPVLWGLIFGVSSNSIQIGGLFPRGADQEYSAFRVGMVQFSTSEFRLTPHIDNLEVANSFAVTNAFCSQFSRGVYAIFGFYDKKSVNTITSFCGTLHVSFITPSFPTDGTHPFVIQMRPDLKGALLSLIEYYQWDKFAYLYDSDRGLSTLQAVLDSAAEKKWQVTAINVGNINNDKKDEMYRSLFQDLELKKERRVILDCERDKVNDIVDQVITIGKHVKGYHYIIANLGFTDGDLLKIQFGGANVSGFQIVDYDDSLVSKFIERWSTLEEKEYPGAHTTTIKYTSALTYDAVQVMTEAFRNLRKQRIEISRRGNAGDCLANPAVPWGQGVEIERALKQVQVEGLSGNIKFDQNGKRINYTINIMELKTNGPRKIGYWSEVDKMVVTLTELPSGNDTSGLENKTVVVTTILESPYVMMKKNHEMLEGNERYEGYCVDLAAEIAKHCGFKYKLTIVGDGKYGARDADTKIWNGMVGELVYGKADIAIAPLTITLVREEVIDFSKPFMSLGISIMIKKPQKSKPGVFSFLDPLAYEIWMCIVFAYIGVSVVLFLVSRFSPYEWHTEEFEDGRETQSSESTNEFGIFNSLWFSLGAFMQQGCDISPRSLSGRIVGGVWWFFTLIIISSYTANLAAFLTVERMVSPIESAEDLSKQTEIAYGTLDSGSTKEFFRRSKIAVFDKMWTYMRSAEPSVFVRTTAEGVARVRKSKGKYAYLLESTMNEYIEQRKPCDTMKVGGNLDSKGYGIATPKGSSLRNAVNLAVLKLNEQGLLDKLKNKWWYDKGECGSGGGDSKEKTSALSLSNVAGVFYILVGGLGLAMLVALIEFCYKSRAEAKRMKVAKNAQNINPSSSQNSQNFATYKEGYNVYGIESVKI
Sequence of Metabotropic glutamate receptor 1 (Rattus norvegicus) (P23385 19-1199 limits assumed): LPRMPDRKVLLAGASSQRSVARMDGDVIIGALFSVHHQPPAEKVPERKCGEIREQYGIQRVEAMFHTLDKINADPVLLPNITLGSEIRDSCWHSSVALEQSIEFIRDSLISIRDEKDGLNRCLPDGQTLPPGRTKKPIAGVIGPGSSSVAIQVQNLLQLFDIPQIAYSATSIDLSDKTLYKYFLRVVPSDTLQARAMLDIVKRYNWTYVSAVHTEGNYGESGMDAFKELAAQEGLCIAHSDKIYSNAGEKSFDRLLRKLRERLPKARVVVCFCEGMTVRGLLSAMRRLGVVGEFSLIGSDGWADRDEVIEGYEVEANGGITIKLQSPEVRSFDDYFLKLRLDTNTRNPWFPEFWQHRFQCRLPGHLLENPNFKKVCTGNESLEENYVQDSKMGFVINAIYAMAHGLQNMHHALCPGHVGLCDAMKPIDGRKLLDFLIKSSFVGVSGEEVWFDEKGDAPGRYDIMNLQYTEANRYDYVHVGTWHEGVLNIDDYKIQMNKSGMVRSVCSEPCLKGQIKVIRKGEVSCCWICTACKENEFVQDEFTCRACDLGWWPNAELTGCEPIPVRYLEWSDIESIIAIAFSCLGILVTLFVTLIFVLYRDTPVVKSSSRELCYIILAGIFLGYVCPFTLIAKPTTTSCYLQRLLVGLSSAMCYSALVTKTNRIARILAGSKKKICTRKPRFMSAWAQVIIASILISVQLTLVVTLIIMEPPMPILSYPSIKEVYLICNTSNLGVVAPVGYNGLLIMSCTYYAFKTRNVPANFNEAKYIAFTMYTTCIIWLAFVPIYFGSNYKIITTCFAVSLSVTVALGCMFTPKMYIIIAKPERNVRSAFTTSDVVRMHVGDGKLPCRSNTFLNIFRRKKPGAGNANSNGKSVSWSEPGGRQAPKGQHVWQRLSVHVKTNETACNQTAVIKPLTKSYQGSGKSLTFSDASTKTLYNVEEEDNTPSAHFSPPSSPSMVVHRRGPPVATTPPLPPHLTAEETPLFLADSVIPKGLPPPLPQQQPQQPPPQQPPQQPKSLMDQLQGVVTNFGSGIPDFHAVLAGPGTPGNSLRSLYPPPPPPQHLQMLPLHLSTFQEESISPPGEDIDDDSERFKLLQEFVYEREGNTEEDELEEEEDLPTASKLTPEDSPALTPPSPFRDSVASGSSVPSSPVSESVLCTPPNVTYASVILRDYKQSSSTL

SMILES | IC50 [1] | Ki [2] | also measured
N[C@@H](Cn1ccc(=O)n(Cc2ccc(-c3nn[nH]n3)cc2)c1=O)C(=O)O | 50.9 µM |  | 
N[C@@H](Cn1ccc(=O)n(Cc2ccccc2P(=O)(O)O)c1=O)C(=O)O | > 100 µM |  | 
N[C@@H](Cn1cc(I)c(=O)n(CCc2nn[nH]n2)c1=O)C(=O)O | 3.73 µM |  | 
N[C@H](Cn1ccc(=O)n(Cc2ccsc2C(=O)O)c1=O)C(=O)O | > 100 µM | > 1000 µM | 
N[C@@H](Cn1ccc(=O)n(Cc2ccc(S(=O)(=O)O)cc2)c1=O)C(=O)O | 49 µM | > 100 µM | 
N[C@@H](CCC(=O)O)C(=O)O [GLUTAMIC ACID] |  |  | EC50 [3]: 35 µM; EC50 [4]: 27 µM
NS(=O)(=O)c1cccc2c1c([N+](=O)[O-])cc1nc(O)c(O)nc12 [NBQX] |  |  | IC50 [5]: 28 µM; IC50 (Glutamate receptor 1 [6]): 6 µM; IC50 [7]: 50 µM
N[C@@H](Cn1ccc(=O)n(CCc2nnn[nH]2)c1=O)C(=O)O | 6.87 µM | > 100 µM | 
N[C@@H](Cn1ccc(=O)n(Cc2ccoc2C(=O)O)c1=O)C(=O)O | 11.7 µM | > 100 µM | 
N[C@@H](Cn1ccc(=O)n(CCC(=O)O)c1=O)C(=O)O |  | > 1000 µM | 
N[C@@H](Cn1ccc(=O)n(Cc2ccsc2C(=O)O)c1=O)C(=O)O | 31.2 µM | > 100 µM | Kd [1]: 71.4 µM; Activity [8]: inactive; IC50 [5]: 0.62 µM; Activity [9]: inactive; Activity [10]: inactive; Activity (Glutamate receptor 1 [11]): inactive; Activity [12]: inactive; IC50 [13]: 0.68 µM; Activity (Glutamate receptor 4): inactive; IC50 [7]: 1.21 µM
NC(Cn1ccc(=O)n(Cc2ccc(P(=O)(O)O)cc2)c1=O)C(=O)O (racemic) | 107 µM | > 1000 µM | 
N[C@@H](Cn1ccc(=O)n(Cc2nn[nH]n2)c1=O)C(=O)O | 45.4 µM | > 100 µM | 
